Activity calls are given as the source filed them.
Assays:
Beta-lactamase [1] = molecular target: Beta-lactamase (Pseudomonas aeruginosa, UniProt Q79MP6);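 also: biochemical dose-response test of metallo-beta-lactamase enzyme inhibition, read out by epi-absorbance; purified recombinant IMP-1 metallo-beta-lactamase with nitrocefin as substrate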
Beta-lactamase [2] = molecular target: Beta-lactamase (Salmonella choleraesuis (strain SC-B67), UniProt Q5J463)
[3] = molecular target: Intestinal-type alkaline phosphatase (Mus musculus, UniProt P24822); assay: PubChem AID 488874; format: functional
[4] = molecular target: T1, Intestinal-type alkaline phosphatase (Homo sapiens, UniProt P09923); assay: human IAP inhibitors, dose response, biochemical, luminescent, uHTS hits, set 2 (AID 488793); format: functional
[5] = molecular target: T1, Intestinal-type alkaline phosphatase; assay: Dose Response confirmation of uHTS hits from a small molecule inhibitors of human intestinal alkaline phosphatase via a luminescent assay. [Related pubchem assays (depositor defined):AID2544, AID2574]; format: functional
ORF 73 = ORF 73 (Human herpesvirus 8, UniProt O40947); assay: inhibitors of C-LANA binding to LBS DNA, dose response, biochemical, fluorescence polarization, cherry-picked samples (AID 504725); parameters: species or system Human gammaherpesvirus 8;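 also: fluorescence polarization of a labeled DNA duplex reporting LANA DNA binding; potency is for inhibitors that block LANA binding to the DNA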
[6] = molecular target: T2, Alkaline phosphatase, tissue-nonspecific isozyme (Homo sapiens, UniProt P05186); assay: inhibition of tissue-nonspecific alkaline phosphatase – biochemical, dose response (AID 488882); format: functional
T2 sequence (P05186 whole entry): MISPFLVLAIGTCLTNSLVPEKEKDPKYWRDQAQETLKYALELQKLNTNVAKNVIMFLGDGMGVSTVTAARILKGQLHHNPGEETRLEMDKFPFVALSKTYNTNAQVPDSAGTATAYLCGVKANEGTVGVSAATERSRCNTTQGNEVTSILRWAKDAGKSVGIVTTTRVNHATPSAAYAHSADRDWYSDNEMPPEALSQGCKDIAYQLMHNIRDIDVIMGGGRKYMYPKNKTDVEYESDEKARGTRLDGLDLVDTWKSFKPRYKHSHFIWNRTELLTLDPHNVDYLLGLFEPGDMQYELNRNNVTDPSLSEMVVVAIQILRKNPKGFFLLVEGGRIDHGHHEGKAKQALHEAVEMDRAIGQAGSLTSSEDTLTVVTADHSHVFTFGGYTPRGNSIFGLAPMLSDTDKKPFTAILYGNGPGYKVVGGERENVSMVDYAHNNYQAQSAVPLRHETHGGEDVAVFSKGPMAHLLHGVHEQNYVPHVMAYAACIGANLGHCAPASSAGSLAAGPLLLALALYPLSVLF

Insulin-degrading enzyme [7] = molecular target: T3, Insulin-degrading enzyme (Homo sapiens, UniProt P14735); assay: activators of recombinant IDE enzyme, dose response, counter-screen for IDE activator project, biochemical, fluorescence polarization (AID 588681)
T3 sequence (P14735 whole entry): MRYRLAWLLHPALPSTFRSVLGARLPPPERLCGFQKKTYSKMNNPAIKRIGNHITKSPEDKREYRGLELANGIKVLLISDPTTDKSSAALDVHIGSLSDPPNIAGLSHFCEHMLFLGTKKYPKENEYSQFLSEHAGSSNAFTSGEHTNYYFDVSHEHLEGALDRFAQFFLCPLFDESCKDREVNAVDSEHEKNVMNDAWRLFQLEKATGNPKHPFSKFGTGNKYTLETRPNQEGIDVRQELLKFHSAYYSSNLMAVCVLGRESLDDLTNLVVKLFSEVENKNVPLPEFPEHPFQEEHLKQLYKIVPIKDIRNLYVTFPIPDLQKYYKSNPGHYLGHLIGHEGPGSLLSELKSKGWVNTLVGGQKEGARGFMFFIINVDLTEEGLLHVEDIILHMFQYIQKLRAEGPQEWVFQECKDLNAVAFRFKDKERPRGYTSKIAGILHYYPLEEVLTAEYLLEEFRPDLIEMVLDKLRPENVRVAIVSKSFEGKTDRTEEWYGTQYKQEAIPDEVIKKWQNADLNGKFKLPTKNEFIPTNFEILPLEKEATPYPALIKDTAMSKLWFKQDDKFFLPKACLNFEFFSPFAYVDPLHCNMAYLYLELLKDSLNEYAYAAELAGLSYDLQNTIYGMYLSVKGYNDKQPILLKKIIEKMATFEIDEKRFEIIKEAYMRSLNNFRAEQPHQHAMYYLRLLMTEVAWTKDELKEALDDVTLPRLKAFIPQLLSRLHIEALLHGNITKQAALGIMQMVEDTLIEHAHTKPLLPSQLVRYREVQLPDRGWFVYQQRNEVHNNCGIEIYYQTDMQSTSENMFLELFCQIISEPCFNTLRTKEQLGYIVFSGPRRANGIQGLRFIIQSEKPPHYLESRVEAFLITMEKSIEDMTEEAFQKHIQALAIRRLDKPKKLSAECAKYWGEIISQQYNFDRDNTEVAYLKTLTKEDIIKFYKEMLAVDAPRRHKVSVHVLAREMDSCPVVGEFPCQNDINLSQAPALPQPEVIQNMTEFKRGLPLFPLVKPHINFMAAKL

Insulin-degrading enzyme [8] = molecular target: T3, Insulin-degrading enzyme; assay: activators of endogenous IDE in HEK cells, dose response, cell-based, fluorescence polarization (AID 588439); format: functional
HEK293 [9] = assay: HEK cell cytotoxicity by LDH release, dose response, cytotoxicity control for IDE activator project, fluorescence, HEK cells (AID 588440); format: functional, cell-based; conditions: Homo sapiens;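 also: cytotoxicity by LDH release measuring loss of membrane integrity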
HEK293 [10] = assay: optical interference in Abeta FP readout, dose response, artefact control for IDE activator project, biochemical, fluorescence polarization (AID 588442); format: functional, cell-based; conditions: Homo sapiens
[11] = molecular target: T4, RNA-binding protein pos-1 (Caenorhabditis elegans, UniProt G5EF15); assay: inhibitors of POS-1/mex-3 RNA binding, dose response, biochemical, fluorescence polarization (AID 1964);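 also: purified POS-1 fused to maltose binding protein made in E. coli; potency of compounds blocking POS-1 binding to fluorescent RNA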
T4 sequence (G5EF15 whole entry): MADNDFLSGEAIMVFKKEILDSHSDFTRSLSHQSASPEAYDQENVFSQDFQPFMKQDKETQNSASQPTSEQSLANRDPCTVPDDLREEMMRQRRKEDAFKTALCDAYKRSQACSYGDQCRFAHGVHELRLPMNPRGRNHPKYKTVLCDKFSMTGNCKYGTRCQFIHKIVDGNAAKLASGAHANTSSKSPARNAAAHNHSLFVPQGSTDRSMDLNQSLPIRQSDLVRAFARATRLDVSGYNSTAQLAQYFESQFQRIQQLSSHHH

[12] = molecular target: T5, Zinc finger protein mex-5 (Caenorhabditis elegans, UniProt Q9XUB2); assay: MEX-5/TCR-2 RNA interaction inhibitors, dose response, biochemical, C. elegans, fluorescence polarization (AID 1960)
T5 sequence (Q9XUB2 whole entry): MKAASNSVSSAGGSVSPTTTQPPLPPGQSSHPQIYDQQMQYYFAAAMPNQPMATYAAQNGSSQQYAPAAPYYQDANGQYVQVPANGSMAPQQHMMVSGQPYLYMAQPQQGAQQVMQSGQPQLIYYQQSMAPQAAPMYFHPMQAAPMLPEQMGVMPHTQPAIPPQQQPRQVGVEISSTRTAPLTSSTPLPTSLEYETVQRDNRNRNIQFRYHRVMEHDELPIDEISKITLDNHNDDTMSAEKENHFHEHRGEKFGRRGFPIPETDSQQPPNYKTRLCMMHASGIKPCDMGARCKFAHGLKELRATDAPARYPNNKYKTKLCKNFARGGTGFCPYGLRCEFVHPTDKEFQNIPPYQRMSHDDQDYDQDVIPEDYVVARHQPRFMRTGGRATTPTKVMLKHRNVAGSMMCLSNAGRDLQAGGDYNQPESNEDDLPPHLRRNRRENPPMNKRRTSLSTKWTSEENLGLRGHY

CHO-K1 = assay: (§1) Counterscreen for antagonists of the orexin 1 receptor (OX1R; HCRTR1): Homogeneous time resolved fluorescence (HTRF)-based cell-based dose response assay to identify antagonists of the parental CHO-K1 cell line. [Related pubchem assays (depositor defined):AID434989, AID435008, AID463079, AID485270, AID492963, AID492964, AID492965, AID493232, AID504699, AID504701]; format: functional; conditions: Cricetulus griseus
[13] = as §1, with “Fluorescence-based” for “Homogeneous time resolved fluorescence (HTRF)-based”, “cell-based high throughput” for “cell-based”, “CHO” for “CHO-K1”; format: functional
[14] = molecular target: T6, Orexin/Hypocretin receptor type 1 (Homo sapiens, UniProt O43613); assay: Homogeneous Time Resolved Fluorescence (HTRF)-based cell-based high throughput dose response assay for antagonists of the orexin 1 receptor (OX1R; HCRTR1). [Related pubchem assays (depositor defined):AID434989, AID435008, AID463079, AID485270, AID492963, AID492964, AID492965, AID493232, AID504717, AID504718]; format: functional
[15] = molecular target: T6, Orexin/Hypocretin receptor type 1; assay: Fluorescence-based cell-based high throughput dose response assay for antagonists of the orexin 1 receptor (OX1R; HCRTR1). [Related pubchem assays (depositor defined):AID434989, AID435008, AID463079, AID485270, AID492963, AID492964, AID492965, AID493232, AID504717, AID504718]; format: functional
Orexin receptor type 2 [16] = molecular target: T7, Orexin receptor type 2 (Homo sapiens, UniProt O43614); assay: Counterscreen assay for antagonists of the orexin 1 receptor (OX1R; HCRTR1): Fluorescence-based cell-based dose response assay for antagonists of the orexin 2 receptor (OX2R; HCRTR2), run by assay provider.; format: functional
Orexin receptor type 2 [17] = molecular target: T7, Orexin receptor type 2; assay: Counterscreen assay for antagonists of the orexin 1 receptor (OX1R; HCRTR1): Homogeneous Time Resolved Fluorescence (HTRF)-based cell-based dose response assay for antagonists of the orexin 2 receptor (OX2R; HCRTR2), run by assay provider.; format: functional
[18] = molecular target: Sphingosine 1-phosphate receptor 2 (Homo sapiens, UniProt O95136); assay: Late-stage fluorescence-based dose-response cell-based counterscreen assay to identify agonists of the Sphingosine 1-Phosphate Receptor 3 (S1P3): Sphingosine 1-Phosphate Receptor 2 (S1P2) agonist assay.; format: functional
[19] = molecular target: T8, Sphingosine 1-phosphate receptor 4 (Homo sapiens, UniProt O95977); assay: Late-stage fluorescence-based dose-response cell-based counterscreen assay to identify agonists of the Sphingosine 1-Phosphate Receptor 3 (S1P3): Sphingosine 1-Phosphate Receptor 4 (S1P4) agonist assay.; format: functional
T8 sequence (O95977 whole entry): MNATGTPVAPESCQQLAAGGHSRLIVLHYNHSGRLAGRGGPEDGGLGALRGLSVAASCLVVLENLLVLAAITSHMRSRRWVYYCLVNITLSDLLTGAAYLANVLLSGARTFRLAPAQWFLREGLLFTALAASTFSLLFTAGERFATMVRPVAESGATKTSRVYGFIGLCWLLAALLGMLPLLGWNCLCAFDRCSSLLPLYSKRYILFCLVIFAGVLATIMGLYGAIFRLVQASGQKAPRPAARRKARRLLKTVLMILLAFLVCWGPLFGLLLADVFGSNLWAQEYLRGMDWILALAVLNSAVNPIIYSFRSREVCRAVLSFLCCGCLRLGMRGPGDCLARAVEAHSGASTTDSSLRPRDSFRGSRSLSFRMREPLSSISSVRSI

[20] = molecular target: T9, Apoptotic protease-activating factor 1 (Homo sapiens, UniProt O14727); assay: SAR analysis of small molecule inhibitors of Apaf-1 in a Fluorescent assay.; format: functional; conditions: read-out: IC50_Mean
T9 sequence (O14727 whole entry): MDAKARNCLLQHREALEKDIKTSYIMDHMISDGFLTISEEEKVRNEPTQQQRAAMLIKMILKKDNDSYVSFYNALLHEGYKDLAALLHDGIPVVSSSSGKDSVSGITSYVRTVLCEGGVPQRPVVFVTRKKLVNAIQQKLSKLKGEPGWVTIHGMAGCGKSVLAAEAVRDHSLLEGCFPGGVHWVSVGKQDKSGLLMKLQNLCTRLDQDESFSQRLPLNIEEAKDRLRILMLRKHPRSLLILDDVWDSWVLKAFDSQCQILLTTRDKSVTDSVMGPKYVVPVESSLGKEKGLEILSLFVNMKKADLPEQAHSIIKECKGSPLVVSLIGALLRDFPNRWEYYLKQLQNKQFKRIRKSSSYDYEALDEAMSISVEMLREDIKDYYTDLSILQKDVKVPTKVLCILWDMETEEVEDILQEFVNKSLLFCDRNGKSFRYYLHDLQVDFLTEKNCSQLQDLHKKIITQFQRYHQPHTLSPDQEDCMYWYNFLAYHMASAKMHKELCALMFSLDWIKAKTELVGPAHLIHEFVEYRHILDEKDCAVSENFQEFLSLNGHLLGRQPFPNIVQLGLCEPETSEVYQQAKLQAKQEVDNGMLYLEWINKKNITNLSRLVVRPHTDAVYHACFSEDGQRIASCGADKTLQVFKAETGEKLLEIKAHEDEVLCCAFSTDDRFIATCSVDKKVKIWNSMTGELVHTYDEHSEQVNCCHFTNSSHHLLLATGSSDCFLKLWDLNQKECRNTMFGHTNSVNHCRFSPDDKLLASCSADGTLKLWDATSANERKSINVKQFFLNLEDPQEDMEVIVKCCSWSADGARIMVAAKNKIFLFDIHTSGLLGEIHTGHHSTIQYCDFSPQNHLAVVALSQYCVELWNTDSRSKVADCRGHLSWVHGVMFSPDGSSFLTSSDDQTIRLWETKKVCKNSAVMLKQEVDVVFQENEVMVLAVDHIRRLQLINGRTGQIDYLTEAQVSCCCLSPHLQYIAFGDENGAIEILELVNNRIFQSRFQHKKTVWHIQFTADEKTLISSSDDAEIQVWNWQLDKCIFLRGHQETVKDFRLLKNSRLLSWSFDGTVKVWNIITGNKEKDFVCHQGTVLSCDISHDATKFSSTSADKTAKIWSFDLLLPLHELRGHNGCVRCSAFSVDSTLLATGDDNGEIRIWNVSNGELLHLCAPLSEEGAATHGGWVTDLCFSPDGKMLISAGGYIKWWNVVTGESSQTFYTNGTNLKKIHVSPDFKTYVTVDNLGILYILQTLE

T7 sequence (O43614 whole entry): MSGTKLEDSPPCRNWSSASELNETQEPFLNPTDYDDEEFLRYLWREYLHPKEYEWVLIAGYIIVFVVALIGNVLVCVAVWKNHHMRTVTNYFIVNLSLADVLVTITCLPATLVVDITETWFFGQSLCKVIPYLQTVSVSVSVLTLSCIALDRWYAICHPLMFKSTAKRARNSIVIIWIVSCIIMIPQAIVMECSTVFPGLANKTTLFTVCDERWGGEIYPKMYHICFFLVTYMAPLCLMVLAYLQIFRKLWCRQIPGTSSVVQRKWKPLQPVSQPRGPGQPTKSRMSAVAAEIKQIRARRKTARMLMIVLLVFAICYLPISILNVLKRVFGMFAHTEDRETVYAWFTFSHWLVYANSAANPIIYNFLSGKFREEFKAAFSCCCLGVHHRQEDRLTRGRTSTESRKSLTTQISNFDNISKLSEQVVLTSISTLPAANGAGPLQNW
T6 sequence (O43613 whole entry): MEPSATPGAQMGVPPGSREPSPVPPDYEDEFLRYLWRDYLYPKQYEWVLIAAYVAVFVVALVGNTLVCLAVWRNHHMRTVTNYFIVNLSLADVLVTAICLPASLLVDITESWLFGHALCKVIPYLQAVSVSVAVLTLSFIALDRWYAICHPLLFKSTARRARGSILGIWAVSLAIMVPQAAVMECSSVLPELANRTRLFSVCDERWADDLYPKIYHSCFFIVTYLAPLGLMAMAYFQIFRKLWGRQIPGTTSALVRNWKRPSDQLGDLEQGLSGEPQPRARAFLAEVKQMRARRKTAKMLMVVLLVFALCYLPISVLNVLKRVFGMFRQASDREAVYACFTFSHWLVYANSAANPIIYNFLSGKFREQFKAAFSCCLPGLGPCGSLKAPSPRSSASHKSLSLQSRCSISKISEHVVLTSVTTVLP
T1 sequence (P09923 whole entry): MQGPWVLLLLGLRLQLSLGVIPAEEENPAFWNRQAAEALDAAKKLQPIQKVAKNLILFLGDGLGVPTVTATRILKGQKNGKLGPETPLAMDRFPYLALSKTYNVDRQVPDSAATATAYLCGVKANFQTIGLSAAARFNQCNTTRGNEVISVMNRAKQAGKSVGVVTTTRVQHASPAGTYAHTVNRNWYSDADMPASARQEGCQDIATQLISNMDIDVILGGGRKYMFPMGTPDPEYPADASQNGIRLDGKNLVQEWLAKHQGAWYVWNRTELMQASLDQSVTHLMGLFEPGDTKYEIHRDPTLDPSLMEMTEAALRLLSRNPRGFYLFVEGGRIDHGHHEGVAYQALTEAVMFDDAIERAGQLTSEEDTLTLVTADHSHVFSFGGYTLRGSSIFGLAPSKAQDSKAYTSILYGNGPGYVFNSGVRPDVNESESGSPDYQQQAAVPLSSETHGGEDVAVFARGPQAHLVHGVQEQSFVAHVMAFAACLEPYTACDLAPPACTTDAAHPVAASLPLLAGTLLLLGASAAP
Sequence of Intestinal-type alkaline phosphatase (Mus musculus, UniProt P24822) (P24822 whole entry): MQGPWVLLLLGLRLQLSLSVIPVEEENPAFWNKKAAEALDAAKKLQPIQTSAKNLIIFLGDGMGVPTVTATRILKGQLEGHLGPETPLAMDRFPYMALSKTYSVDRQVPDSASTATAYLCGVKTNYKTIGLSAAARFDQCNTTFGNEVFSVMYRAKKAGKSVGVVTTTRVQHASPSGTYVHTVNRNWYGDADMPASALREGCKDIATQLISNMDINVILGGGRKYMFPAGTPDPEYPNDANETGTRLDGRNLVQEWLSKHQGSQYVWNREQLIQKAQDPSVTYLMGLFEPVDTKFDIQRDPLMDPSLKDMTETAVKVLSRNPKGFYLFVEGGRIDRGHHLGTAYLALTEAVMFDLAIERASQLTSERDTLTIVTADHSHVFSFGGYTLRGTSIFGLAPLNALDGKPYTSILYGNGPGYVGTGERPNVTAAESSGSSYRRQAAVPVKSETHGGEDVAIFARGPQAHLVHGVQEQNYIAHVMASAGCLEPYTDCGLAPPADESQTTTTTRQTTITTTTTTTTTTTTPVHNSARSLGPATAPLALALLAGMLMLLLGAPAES
Sequence of Sphingosine 1-phosphate receptor 2 (O95136 whole entry): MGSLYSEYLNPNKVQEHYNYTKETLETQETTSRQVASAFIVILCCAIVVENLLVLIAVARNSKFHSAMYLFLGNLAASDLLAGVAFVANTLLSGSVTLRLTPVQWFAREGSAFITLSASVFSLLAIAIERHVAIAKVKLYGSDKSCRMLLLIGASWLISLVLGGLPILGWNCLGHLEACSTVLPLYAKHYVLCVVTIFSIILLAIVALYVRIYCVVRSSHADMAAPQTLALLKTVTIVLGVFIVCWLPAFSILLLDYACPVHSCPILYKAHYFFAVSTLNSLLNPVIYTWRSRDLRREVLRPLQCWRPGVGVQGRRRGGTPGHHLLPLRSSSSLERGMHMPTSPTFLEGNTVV
Sequence of ORF 73 (O40947 whole entry): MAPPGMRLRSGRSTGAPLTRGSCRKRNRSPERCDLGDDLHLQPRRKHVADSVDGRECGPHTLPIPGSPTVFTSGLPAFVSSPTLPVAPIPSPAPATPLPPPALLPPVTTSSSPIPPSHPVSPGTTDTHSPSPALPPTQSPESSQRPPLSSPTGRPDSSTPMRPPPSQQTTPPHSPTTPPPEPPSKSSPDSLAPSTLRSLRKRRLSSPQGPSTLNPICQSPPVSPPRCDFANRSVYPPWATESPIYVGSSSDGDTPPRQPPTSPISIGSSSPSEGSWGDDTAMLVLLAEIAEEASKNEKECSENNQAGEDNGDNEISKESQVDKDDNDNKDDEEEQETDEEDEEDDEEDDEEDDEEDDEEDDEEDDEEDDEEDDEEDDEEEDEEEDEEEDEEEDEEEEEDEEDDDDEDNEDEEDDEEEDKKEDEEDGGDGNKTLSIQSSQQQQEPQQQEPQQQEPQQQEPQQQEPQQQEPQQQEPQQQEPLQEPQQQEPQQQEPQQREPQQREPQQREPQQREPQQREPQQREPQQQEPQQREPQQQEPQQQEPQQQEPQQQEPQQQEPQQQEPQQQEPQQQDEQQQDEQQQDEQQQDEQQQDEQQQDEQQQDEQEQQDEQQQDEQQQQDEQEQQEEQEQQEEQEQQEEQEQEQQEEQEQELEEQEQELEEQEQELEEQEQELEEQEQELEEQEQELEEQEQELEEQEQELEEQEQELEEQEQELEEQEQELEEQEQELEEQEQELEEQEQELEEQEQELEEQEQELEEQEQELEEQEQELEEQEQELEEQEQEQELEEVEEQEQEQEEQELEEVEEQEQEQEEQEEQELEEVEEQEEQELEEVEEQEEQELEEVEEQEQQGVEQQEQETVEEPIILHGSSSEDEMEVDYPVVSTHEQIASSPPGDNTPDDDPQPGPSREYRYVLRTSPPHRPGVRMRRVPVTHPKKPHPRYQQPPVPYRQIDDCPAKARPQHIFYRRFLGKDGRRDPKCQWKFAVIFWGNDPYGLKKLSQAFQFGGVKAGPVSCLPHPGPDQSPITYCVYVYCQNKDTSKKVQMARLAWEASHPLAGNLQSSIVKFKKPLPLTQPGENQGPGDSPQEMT
Sequence of Beta-lactamase (Salmonella choleraesuis (strain SC-B67), UniProt Q5J463) (Q5J463 whole entry): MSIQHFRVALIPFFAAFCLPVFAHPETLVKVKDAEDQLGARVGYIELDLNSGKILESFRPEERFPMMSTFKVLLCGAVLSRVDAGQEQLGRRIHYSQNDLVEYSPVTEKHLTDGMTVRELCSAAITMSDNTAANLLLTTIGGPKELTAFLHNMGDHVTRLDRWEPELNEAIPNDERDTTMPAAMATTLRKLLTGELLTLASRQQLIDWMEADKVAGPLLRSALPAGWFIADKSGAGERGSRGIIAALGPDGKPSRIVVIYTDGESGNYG
Sequence of Beta-lactamase (Pseudomonas aeruginosa, UniProt Q79MP6) (Q79MP6 whole entry): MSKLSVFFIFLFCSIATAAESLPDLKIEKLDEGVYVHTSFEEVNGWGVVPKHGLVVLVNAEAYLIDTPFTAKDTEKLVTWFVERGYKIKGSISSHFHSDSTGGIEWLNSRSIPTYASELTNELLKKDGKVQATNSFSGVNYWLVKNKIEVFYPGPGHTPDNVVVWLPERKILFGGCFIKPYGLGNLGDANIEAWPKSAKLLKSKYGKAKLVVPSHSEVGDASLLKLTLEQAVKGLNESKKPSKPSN

Nc1ccc(-c2c3ccc(=O)cc-3oc3cc(O)ccc23)cc1C(=O)O
active: IC50 (Beta-lactamase [1]) 8.62 µM | IC50 (Beta-lactamase [2]) 3.41 µM | IC50 [3] 20.3 µM | IC50 [4] 28.1 µM | AC50 (ORF 73) 0.532 µM | IC50 [6] 34 µM
inactive: IC50 [5] 14.5 µM | EC50 (Insulin-degrading enzyme [7]) > 54.7 µM | EC50 (Insulin-degrading enzyme [8]) > 54.7 µM | IC50 (HEK293 [9]) > 89.2 µM | EC50 (HEK293 [10]) > 54.7 µM

Nc1c(C(=O)c2ccc(Br)s2)oc2ccccc12
active: EC50 [11] 71.8 µM | EC50 [12] 106 µM | IC50 [14] 6.69 µM
inactive: IC50 (CHO-K1) > 66.2 µM | IC50 [13] > 49.8 µM | IC50 [15] 15.7 µM | IC50 (Orexin receptor type 2 [16]) 30.7 µM | IC50 (Orexin receptor type 2 [17]) > 50 µM

CC1CCCCC1N(C(=O)c1cc(C2CC2)on1)C1CCOCC1 (configuration not stated)
inactive: EC50 [18] > 50 µM | EC50 [19] > 50 µM

Cc1ccc2c(c1)C(=O)c1nc3ccccc3c(=O)n1-2
inactive: IC50 [20] > 100 µM

From ChEMBL document CHEMBL1201862, “PubChem BioAssay data set” (2004)
